Reference: ChEMBL document CHEMBL1201862, “PubChem BioAssay data set” (2004)
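Test compounds were applied to cells in 96-well plates for 48 hours at 5 doses. Abbreviation: GI50, concentration required for 50% inhibition of growth.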 Active and inactive are the calls of the source. Rule as the data show it: active = GI50 up to about 1.1 µM and inactive = higher.

Columns and labels:
Assay in all cases: NCI-60 cell line screen, 48 h
TK-10 = system: TK-10
MDA-N = system: MDA-N
SF-268 = system: SF-268
SK-OV-3 = system: SK-OV-3
M14 = system: M14
T47D = system: T47D
SR = system: SR
UO-31 = system: UO-31
OVCAR-5 = system: OVCAR-5
OVCAR-3 = system: OVCAR-3
SNB-19 = system: SNB-19
NCI-H23 = system: NCI-H23
A549 = system: A549
HT-29 = system: HT-29
HCT-116 = system: HCT-116
OVCAR-4 = system: OVCAR-4
CCRF-CEM = system: CCRF-CEM
SK-MEL-5 = system: SK-MEL-5
UACC-257 = system: UACC-257
SNB-75 = system: SNB-75
PC-3 = system: PC-3
NCI-H226 = system: NCI-H226
SK-MEL-28 = system: SK-MEL-28
MCF7 = system: MCF7
NCI-H522 = system: NCI-H522
SN12C = system: SN12C
786-0 = system: 786-0
EKVX = system: EKVX
MDA-MB-435 = system: MDA-MB-435
HCC 2998 = system: HCC 2998
SW-620 = system: SW-620
NCI-H460 = system: NCI-H460
A498 = system: A498
ACHN = system: ACHN
DU-145 = system: DU-145
COLO 205 = system: COLO 205
BT-549 = system: BT-549
LOX IMVI = system: LOX IMVI
SK-MEL-2 = system: SK-MEL-2
SF-295 = system: SF-295
HL-60 = system: HL-60
RPMI-8226 = system: RPMI-8226
HOP-62 = system: HOP-62
MDA-MB-231 = system: MDA-MB-231
IGROV-1 = system: IGROV-1
CAKI-1 = system: CAKI-1
OVCAR-8 = system: OVCAR-8
MOLT-4 = system: MOLT-4
UACC-62 = system: UACC-62
SF-539 = system: SF-539
U-251 = system: U-251
KM12 = system: KM12
Hs-578T = system: Hs-578T
HCT-15 = system: HCT-15
NCI/ADR-RES = system: NCI/ADR-RES
K562 = system: K562
Malme-3M = system: Malme-3M
RXF 393 = system: RXF 393

CC1=CC[C@@H]2[C@@H](CC[C@@]2(C)O)C(C)(C)[C@H]1CC[C@@H]1[C@@]2(C)CCC(=O)C(C)(C)O[C@@H]2CC[C@]1(C)O was tested, and the GI50 (TK-10) was 83.4 µM (inactive), the GI50 (MDA-N) was 25 µM (inactive) and the GI50 (SF-268) was 29.9 µM (inactive). The GI50 (SK-OV-3) was 74.3 µM (inactive), the GI50 (M14) was 25.3 µM (inactive) and the GI50 (T47D) was 43.5 µM (inactive). The GI50 (SR) was 19 µM (inactive), the GI50 (UO-31) was 22.5 µM (inactive) and the GI50 (OVCAR-5) was 71 µM (inactive). For the same compound, the GI50 (OVCAR-3) was 37.7 µM (inactive), the GI50 (SNB-19) was 26.9 µM (inactive) and the GI50 (NCI-H23) was 34.3 µM (inactive). For the same compound, the GI50 (A549) was 24.7 µM (inactive), the GI50 (HT-29) was > 10 µM (inactive) and the GI50 (HCT-116) was 19.9 µM (inactive). The GI50 (OVCAR-4) was 39.1 µM (inactive), the GI50 (CCRF-CEM) was 23.3 µM (inactive) and the GI50 (SK-MEL-5) was 17.2 µM (inactive). The GI50 (UACC-257) was 30.3 µM (inactive), the GI50 (SNB-75) was 65.6 µM (inactive) and the GI50 (PC-3) was 29.4 µM (inactive). For the same compound, the GI50 (NCI-H226) was 22.5 µM (inactive), the GI50 (SK-MEL-28) was 31.2 µM (inactive) and the GI50 (MCF7) was 37.3 µM (inactive). The GI50 (NCI-H522) was 18.5 µM (inactive), the GI50 (SN12C) was 22.4 µM (inactive) and the GI50 (786-0) was 24.7 µM (inactive). For the same compound, the GI50 (EKVX) was 42.1 µM (inactive), the GI50 (MDA-MB-435) was 30.7 µM (inactive) and the GI50 (HCC 2998) was 18.7 µM (inactive). For the same compound, the GI50 (SW-620) was 32.7 µM (inactive), the GI50 (NCI-H460) was 17.7 µM (inactive) and the GI50 (A498) was 31 µM (inactive). For the same compound, the GI50 (ACHN) was 19.5 µM (inactive), the GI50 (DU-145) was 42.9 µM (inactive) and the GI50 (COLO 205) was 25.6 µM (inactive). The GI50 (BT-549) was 19 µM (inactive), the GI50 (LOX IMVI) was 19.1 µM (inactive) and the GI50 (SK-MEL-2) was 36.7 µM (inactive). The GI50 (SF-295) was 0.762 µM (active), the GI50 (HL-60) was 16.9 µM (inactive) and the GI50 (RPMI-8226) was 19.7 µM (inactive). For the same compound, the GI50 (HOP-62) was 32.9 µM (inactive), the GI50 (MDA-MB-231) was 45.6 µM (inactive) and the GI50 (IGROV-1) was 28.9 µM (inactive). For the same compound, the GI50 (CAKI-1) was 36.1 µM (inactive), the GI50 (OVCAR-8) was 24.8 µM (inactive) and the GI50 (MOLT-4) was 20.7 µM (inactive). The GI50 (UACC-62) was 16.1 µM (inactive), the GI50 (SF-539) was 17.3 µM (inactive) and the GI50 (U-251) was 31.9 µM (inactive). For the same compound, the GI50 (KM12) was 15.2 µM (inactive), the GI50 (Hs-578T) was 22.8 µM (inactive) and the GI50 (HCT-15) was 14.9 µM. The GI50 (NCI/ADR-RES) was 21.9 µM (inactive).
N=c1oc2c(Cl)cc(Cl)cc2cc1C(=O)Nc1ccccn1 was tested, and the GI50 (TK-10) was 34.5 µM (inactive), the GI50 (MDA-N) was 62.1 µM (inactive) and the GI50 (SF-268) was 33 µM (inactive). The GI50 (SK-OV-3) was 67.5 µM (inactive), the GI50 (M14) was 33.7 µM (inactive) and the GI50 (T47D) was 74.8 µM (inactive). The GI50 (SR) was 23.1 µM (inactive), the GI50 (UO-31) was 59 µM (inactive) and the GI50 (OVCAR-5) was > 100 µM (inactive). The GI50 (OVCAR-3) was 24.6 µM (inactive), the GI50 (SNB-19) was 34.7 µM (inactive) and the GI50 (NCI-H23) was 41.4 µM (inactive). For the same compound, the GI50 (A549) was 44.4 µM (inactive), the GI50 (HT-29) was 91.2 µM (inactive) and the GI50 (HCT-116) was 41.1 µM (inactive). The GI50 (OVCAR-4) was 58.6 µM (inactive), the GI50 (CCRF-CEM) was 22 µM (inactive) and the GI50 (SK-MEL-5) was > 100 µM (inactive). For the same compound, the GI50 (UACC-257) was > 100 µM (inactive), the GI50 (SNB-75) was 14.3 µM (inactive) and the GI50 (PC-3) was 52 µM (inactive). The GI50 (NCI-H226) was > 100 µM (inactive), the GI50 (SK-MEL-28) was > 100 µM (inactive) and the GI50 (MCF7) was 29.2 µM (inactive). For the same compound, the GI50 (SN12C) was 99.3 µM (inactive), the GI50 (K562) was 71 µM (inactive) and the GI50 (786-0) was 27.5 µM (inactive). For the same compound, the GI50 (EKVX) was 67.3 µM (inactive), the GI50 (MDA-MB-435) was 45.6 µM (inactive) and the GI50 (HCC 2998) was 81.5 µM (inactive). For the same compound, the GI50 (SW-620) was 43.6 µM (inactive), the GI50 (NCI-H460) was 48.3 µM (inactive) and the GI50 (A498) was 40.1 µM (inactive). For the same compound, the GI50 (ACHN) was 22 µM (inactive), the GI50 (DU-145) was 72.4 µM (inactive) and the GI50 (COLO 205) was > 100 µM (inactive). The GI50 (BT-549) was 41.4 µM (inactive), the GI50 (SK-MEL-2) was 42.7 µM (inactive) and the GI50 (SF-295) was 54.7 µM (inactive). For the same compound, the GI50 (HL-60) was > 100 µM (inactive), the GI50 (RPMI-8226) was 22.3 µM (inactive) and the GI50 (HOP-62) was 16.4 µM (inactive). The GI50 (MDA-MB-231) was 69.2 µM (inactive), the GI50 (CAKI-1) was > 100 µM (inactive) and the GI50 (MOLT-4) was 8.24 µM (inactive). For the same compound, the GI50 (Malme-3M) was > 100 µM (inactive), the GI50 (UACC-62) was 20.6 µM (inactive) and the GI50 (SF-539) was 40.9 µM (inactive). The GI50 (RXF 393) was 19.8 µM (inactive), the GI50 (U-251) was 37.2 µM (inactive) and the GI50 (KM12) was 13.9 µM (inactive). The GI50 (Hs-578T) was 20.5 µM (inactive), the GI50 (HCT-15) was 34.8 µM and the GI50 (NCI/ADR-RES) was 66.4 µM (inactive).
